Values quoted from earlier work, collected in patent US20120142623A1, “Compositions And Methods For Predicting Inhibitors Of Protein Targets” (priority 2006, published 2012).
Where two headings read alike, the source gives them in different places.

Key:
gp41 = settings: HIV-1 target gp41; read-out: Inhibitory effect (uM), IC50, gp41; cited from earlier work
HIV-1 = settings: HIV-1, target Unknown, cited from earlier work
Vpr = Vpr (Human immunodeficiency virus type 1 group M subtype B, UniProt P12520); settings: read-out: Inhibitory effect (uM), EC50, Vpr; HIV-1 target Vpr; cited from earlier work
Vpr, sequence (P12520 whole entry): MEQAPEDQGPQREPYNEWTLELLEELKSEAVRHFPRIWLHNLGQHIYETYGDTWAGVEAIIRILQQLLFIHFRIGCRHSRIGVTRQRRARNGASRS

Reverse transcriptase = Reverse transcriptase (Human immunodeficiency virus type 1 group M subtype B, UniProt P04585)
Tat = Tat (Human immunodeficiency virus type 1 group M subtype B, UniProt P04608)
Tat, sequence (P04608 whole entry): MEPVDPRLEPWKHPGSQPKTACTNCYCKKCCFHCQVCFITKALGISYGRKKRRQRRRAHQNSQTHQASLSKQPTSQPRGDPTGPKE

Integrase = Integrase (Human immunodeficiency virus type 1 group M subtype B, UniProt P04585)
Protease = Protease (Human immunodeficiency virus type 1 group M subtype B, UniProt P04585); settings: HIV-1 target Protease; read-out: Inhibitory effect (uM), IC50, Protease; cited from earlier work
[1] = test system: plasmepsin enzyme target from the malarial parasite Plasmodium malariae; settings: complexes solved by x-ray diffraction (1msm, 2anl); cited from earlier work
gp120 = target: T1, gp120 (Human immunodeficiency virus type 1 group M subtype B, UniProt P03375); settings: read-out: Inhibitory effect (uM), ED50, gp120; HIV-1 target gp120; cited from earlier work
T1 construct: V3 region of HIV-1 envelope glycoprotein gp120 to galactosylceramide

Amphotericin B
IC50 (gp41): > 10 µM

CO[C@@H]1[C@H](OC(=O)/C=C/C=C/C=C/C=C/C(=O)O)CC[C@]2(CO2)[C@H]1[C@@]1(C)O[C@@H]1CC=C(C)C [Fumagillin]
EC50 (HIV-1; printed EC, read-out: Inhibitory effect (uM), EC, target Unknown): > 0.2 µM | EC50 (Vpr): 0.015 µM

CCN(CC)CCCC(C)Nc1ccnc2cc(Cl)ccc12 (stereo not shown) [Chloroquine]
IC50 (Reverse transcriptase; read-out: Inhibitory effect (uM), IC50, Reverse transcriptase; HIV-1 target Reverse transcriptase; cited from earlier work): > 300 µM | IC50 (Tat; read-out: Inhibitory effect (uM), IC50, Tat; HIV-1 target Tat; cited from earlier work): < 50 µM | IC50 (Integrase; read-out: Inhibitory effect (uM), IC50, Integrase; HIV-1 target Integrase; cited from earlier work): 5.14 µM

Cc1ccccc1CNC(=O)[C@H]1N(C(=O)[C@@H](O)[C@H](Cc2ccccc2)NC(=O)c2cccc(O)c2C)CSC1(C)C [KNI-764]
IC50 (Protease): > 0.05 µM | inhibition of HIV-1 protease and plasmepsin [1]: inhibits both HIV-1 protease and the plasmepsin enzyme target

Cc1ccc(C(=O)Nc2ccc(S(=O)(=O)O)c3cc(S(=O)(=O)O)cc(S(=O)(=O)O)c23)cc1NC(=O)c1cccc(NC(=O)Nc2cccc(C(=O)Nc3cc(C(=O)Nc4ccc(S(=O)(=O)O)c5cc(S(=O)(=O)O)cc(S(=O)(=O)O)c45)ccc3C)c2)c1 [Suramin]
EC50 (gp120): 7.7 µM | IC50 (Integrase; HIV-1 target Integrase; read-out: Inhibitory effect (uM), IC50, Integrase; cited from earlier work): 2.4 µM

CN(C)c1ccc(O)c2c1C[C@H]1C[C@H]3[C@H](N(C)C)C(O)=C(C(N)=O)C(=O)[C@@]3(O)C(O)=C1C2=O [Minocycline]
IC50 (Reverse transcriptase; HIV-1 target Reverse transcriptase; read-out: Inhibitory effect (uM), IC50, Reverse transcriptase; cited from earlier work): 1200 µM

CC(C)S(=O)(=O)n1c(N)nc2ccc(/C(=N/O)c3ccccc3)cc21 [Enviroxime]
EC50 (HIV-1; read-out: Inhibitory effect (uM), EC50, target Unknown): > 36.5 µM

CCC(C)c1c(O[C@H]2C[C@@H](O[C@H]3C[C@@H](O)[C@H](O)[C@@H](C)O3)[C@H](O)[C@@H](C)O2)cc2cc3c(c(O)c2c1O)C(=O)C(O[C@H]1C[C@@H](O[C@H]2C[C@@H](O[C@H]4C[C@@H](O[C@H]5C[C@@H](O)[C@H](O)[C@@H](C)O5)[C@H](O)[C@@H](C)O4)[C@@H](OC(C)=O)[C@@H](C)O2)[C@H](O)[C@@H](C)O1)C(C(OC)C(=O)C(O)C(C)O)C3 (stereo partly shown) [Durhamycin A]
IC50 (Tat; HIV-1 target Tat; read-out: Inhibitory effect (uM), IC50, Tat; cited from earlier work): 0.0048 µM
